Entries after “also recorded” stand apart in the source; their conditions may differ.
How the values were obtained:
[1] = test system: Arabidopsis thaliana columbia (Col-0); assay: Arabidopsis hypocotyl extension assay and plant growth; assay type: in vivo
Method: The hypocotyl extension assay was conducted as previously described, [66]. MS Salts medium (containing micro and macro elements including vitamins, pH 5.8) was supplemented with 1 g/L sucrose and 0.7 g/L phytagel (Sigma) before autoclaving. After the medium cooled to ∼50°C it was divided into 50 mL aliquots and compounds to be tested (or an equivalent amount of appropriate solvent for control plates) then added at the desired concentration under aseptic conditions. The media were then poured into separate 100 mm square Petri dishes and allowed to cool to room temperature in a laminar flow hood. Arabidopsis thaliana columbia (Col-0) seeds were surface sterilised with 5% bleach for 10 min immediately prior to use. The seeds were then washed three times with sterile water under a laminar flow hood. After surface sterilisation the seeds were planted in a grid pattern (32 seeds per dish) and the dishes sealed with surgical tape. The plates were transferred to 4°C and left for 64 h in the dark to vernalise, after which they were transferred to a 22°C growth cabinet. After 2 h of light exposure the plates were stacked vertically in the dark at 22°C to allow for hypocotyl extension along the agar surface. After 4–5 days the hypocotyls were observed using an optical microscope and their length measured. For experiments where the plants were allowed to form rosettes, the Arabidopsis seedlings were grown horizontally under a 16 h day in a 22°C growth cabinet for the indicated number of weeks.

[2] = test system: Arabidopsis thaliana hypocotyl cells; assay: Cryo-SEM of Arabidopsis hypocotyls (cell size); assay type: in vivo; conditions: 40 µM, 5 days in the dark; control ∼300 µm
From the text: Five day old hypocotyls grown on media containing various concentrations of compound were frozen in nitrogen slush and loaded into a Philips XL30 SEM with a cryo stage installed. Samples were sputter coated with platinum and transferred into the microscope chamber for image collection.

M. mazei topo VI [3] = biological target: T1, M. mazei topo VI (Methanosarcina mazei, UniProt Q8PUB7+Q8PUB8); assay: Agarose gel-based DNA relaxation assay; assay type: biochemical; conditions: for IC50: gel relaxation assay, 1 unit (50 nM) topo VI, read-out: Approx. IC50 against M. mazei topo VI; for Mechanism (Topo VI): summary of mechanistic tests with M. mazei and S. shibatae topo VI
T1 construct: His tag; made in house
T1 sequence (Q8PUB8 whole entry): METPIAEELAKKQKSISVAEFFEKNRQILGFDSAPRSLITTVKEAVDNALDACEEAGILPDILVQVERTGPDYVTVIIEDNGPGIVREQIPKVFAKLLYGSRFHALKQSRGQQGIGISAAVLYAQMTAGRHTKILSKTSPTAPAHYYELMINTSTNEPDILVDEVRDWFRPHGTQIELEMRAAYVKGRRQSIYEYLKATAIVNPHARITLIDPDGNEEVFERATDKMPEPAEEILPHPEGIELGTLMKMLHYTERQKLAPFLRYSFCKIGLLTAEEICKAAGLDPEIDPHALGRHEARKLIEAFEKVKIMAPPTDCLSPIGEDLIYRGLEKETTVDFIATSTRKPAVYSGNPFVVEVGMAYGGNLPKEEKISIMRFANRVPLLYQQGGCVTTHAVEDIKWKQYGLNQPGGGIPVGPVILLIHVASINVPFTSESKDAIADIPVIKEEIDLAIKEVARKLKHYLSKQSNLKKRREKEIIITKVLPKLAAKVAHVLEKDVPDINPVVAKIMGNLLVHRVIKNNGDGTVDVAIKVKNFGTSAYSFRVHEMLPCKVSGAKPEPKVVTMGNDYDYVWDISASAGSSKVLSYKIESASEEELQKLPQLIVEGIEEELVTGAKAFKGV
T1 sequence (Q8PUB7 whole entry): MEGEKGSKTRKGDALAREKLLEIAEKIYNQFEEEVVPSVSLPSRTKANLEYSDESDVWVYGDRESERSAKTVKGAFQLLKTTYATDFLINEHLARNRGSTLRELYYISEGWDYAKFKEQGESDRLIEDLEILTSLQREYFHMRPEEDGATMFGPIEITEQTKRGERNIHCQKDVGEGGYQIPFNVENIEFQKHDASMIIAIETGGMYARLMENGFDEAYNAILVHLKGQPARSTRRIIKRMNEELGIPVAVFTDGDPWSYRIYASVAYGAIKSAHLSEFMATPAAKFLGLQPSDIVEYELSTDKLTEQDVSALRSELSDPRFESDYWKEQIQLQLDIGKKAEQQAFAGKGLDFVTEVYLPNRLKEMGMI
Method: (§1) The agarose gel-based assay was conducted as previously described, [44], [62]. In brief, topoisomerases were incubated with 0.5 µg of plasmid and the desired concentration of compound for 30 min at 37°C (for DNA gyrase and M. mazei topo VI) or 5 min at 75°C (for S. shibatae topo VI), in a total volume of 30 µL. […] Reactions were stopped by the addition of a loading buffer containing EDTA and the drug extracted by vortexing with either chloroform or aqueous butanol as required. In the case of M. mazei topo VI, it was necessary to include SDS in the loading buffer, at a final concentration of 1%. Samples were loaded onto a 1% agarose gel, run for the appropriate length of time and stained with ethidium bromide before visualisation on a UV transilluminator.

S. shibatae topo VI [4] = biological target: T2, S. shibatae topo VI (Saccharolobus shibatae, UniProt O05207+O05208); assay: Gel-based relaxation assay with S. shibatae topo VI; assay type: biochemical, Sulfolobus shibatae
T2 construct: gift from Danielle Gadelle (University of Paris XI, Orsay)
T2 sequence (O05207 whole entry): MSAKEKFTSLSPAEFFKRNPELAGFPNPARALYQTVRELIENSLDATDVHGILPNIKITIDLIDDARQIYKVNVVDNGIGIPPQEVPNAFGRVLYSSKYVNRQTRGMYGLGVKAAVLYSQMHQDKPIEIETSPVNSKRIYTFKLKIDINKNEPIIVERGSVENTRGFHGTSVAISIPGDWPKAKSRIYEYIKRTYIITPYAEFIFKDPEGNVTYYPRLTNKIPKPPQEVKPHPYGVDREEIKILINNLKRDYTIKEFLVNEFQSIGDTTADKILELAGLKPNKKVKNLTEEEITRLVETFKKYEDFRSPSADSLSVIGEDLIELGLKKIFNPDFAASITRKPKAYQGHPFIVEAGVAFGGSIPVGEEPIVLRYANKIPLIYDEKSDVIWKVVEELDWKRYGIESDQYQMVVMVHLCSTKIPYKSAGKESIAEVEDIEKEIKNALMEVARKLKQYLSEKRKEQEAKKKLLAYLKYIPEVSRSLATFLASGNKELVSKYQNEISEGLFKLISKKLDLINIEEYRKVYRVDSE
T2 sequence (O05208 whole entry): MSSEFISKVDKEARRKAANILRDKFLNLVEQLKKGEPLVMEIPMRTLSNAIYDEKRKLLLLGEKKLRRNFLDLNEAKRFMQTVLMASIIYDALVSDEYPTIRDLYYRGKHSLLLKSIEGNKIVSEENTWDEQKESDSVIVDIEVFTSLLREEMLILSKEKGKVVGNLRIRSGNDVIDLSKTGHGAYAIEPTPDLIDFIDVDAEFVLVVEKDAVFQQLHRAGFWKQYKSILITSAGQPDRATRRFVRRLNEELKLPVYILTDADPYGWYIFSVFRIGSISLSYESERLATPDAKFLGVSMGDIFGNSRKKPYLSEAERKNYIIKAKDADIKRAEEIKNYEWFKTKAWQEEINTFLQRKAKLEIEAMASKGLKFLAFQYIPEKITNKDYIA
Method: as §1

M. mazei topo VI [5] = biological target: T1, M. mazei topo VI; assay: Pyruvate kinase-linked ATPase assay; assay type: biochemical; conditions: data not shown
Method: ATPase assays were performed essentially as described previously except they were adapted to a microplate format using clear, colourless 96-well Microtitre plates (Pro-bind™, Becton Dickinson). Reactions were carried out in 100 µL of the established reaction buffer for either DNA gyrase of M. mazei topo VI [36], [62] supplemented with: 800 µM phosphoenolpyruvate (PEP), 400 µM NADH, 1% (vol/vol) PK/LDH (pyruvate kinase-lactate dehydrogenase mixture in 50% (w/v) glycerol,100 mM KCl, 10 mM HEPES (pH 7.0)) and the desired concentration of hit compound. ATP was initially withheld from the reaction. After 5 min incubation at room temperature the reactions were initiated by the addition of ATP and the absorbance at 340 nm was measured over the course of an hour using a Spectra Max Plus absorbance reader (Molecular Devices). Data were processed by omitting the first 10–15 min of collection and normalising the first retained time point. This was done to exclude artifacts observed within this time frame and for ease of comparison of rates. Controls lacking topoisomerase were used to assess the intrinsic ATPase activity of the test compounds.

E. coli MG1655 = assay: Bacterial growth inhibition; assay type: cell-based, Escherichia coli; conditions: liquid and solid media
Method: (§2) For E. coli work, 10 mL cultures of E. coli MG1655 or NR698 were grown overnight at 37°C in LB medium. A 100 µL sample was then added to 10 mL of LB medium containing the desired concentration of compound. The culture was then allowed to grow at 37°C for 5 h and its OD600 measured every hour. For M. smegmatis, a 50 mL culture was grown for 48 h in Middlebrooks 7H11 medium at 37°C. A 100 µL sample was then added to 10 mL of Middlebrooks 7H11 containing the desired concentration of compound. The culture was then allowed to grow at 37°C for 9 h and its OD600 measured every three hours. For colony counting experiments M. smegmatis was grown for 48 h in 50 mL of Middlebrooks 7H9 medium at 37°C. A 100 µL sample was then added to 10 mL of Middlebrooks 7H9 medium containing the desired concentration test compound and allowed to grow at 37°C overnight. After 16 h, 20 µL samples were taken from these cultures and diluted 1 in 10,000 with Middlebrooks 7H9 medium. Petri dishes containing Middlebrooks 7H11 agar were prepared and 100 µL of each diluted culture was spread out. The plates were subsequently stored at 4°C. This was repeated every three hours for six hours, after which the plates were transferred to 37°C for 48 h. The numbers of colonies for each time point were counted manually.

[6] = biological target: T3, M. mazei DNA topoisomerase VI (Methanosarcina mazei, UniProt Q8PUB7+Q8PUB8); assay: DNA triplex-based microtitre plate screen, topo VI relaxation; assay type: biochemical; conditions: 25 µM compound, duplicate
T3 construct: His tag; made in house
T3 sequence (Q8PUB8 whole entry): as the sequence (Q8PUB8 whole entry) above
T3 sequence (Q8PUB7 whole entry): as the sequence (Q8PUB7 whole entry) above
Method: The triplex-based assay was conducted as previously described [45]–[47]. In brief, oligonucleotide TFO1 was immobilised onto a streptavidin-coated microtitre plate. Excess oligonucleotide was removed by washing with buffer. Topoisomerase reactions were carried out in a 30 μL reaction volume containing 1–2 units topoisomerase and 1 μg relaxed or negatively supercoiled pNO1 under the published reaction conditions, [47]; gyrase supercoiling: 35 mM Tris•HCl (pH 7.5), 24 mM KCl, 4 mM MgCl2, 2 mM DTT, 1.8 mM spermidine, 1 mM ATP, 6.5% (w/v) glycerol, 0.1 mg/mL bovine serum albumin; topo VI relaxation: 20 mM bis-tris propane (pH 6.5), 100 mM potassium glutamate, 10 mM MgCl2, 1 mM DTT, 1 mM ATP. […] The DNA retained on the plate was stained with SYBR Gold (Sigma) dye and the fluorescence readings for each well read in a SpectraMax Gemini fluorimeter (Molecular Devices).
Twelve plates were screened in duplicate over three days manually using a multichannel pipette as previously described. […] Once the data had been collected from the screen, the fluorescence signals for the duplicates were averaged and converted into percentage inhibition using the positive and negative controls. […] To analyse the degree of separation between a negative and positive result the Z' factor [51] for the assay was calculated from the data for the control reactions (Equation 1). […]

E. coli DNA gyrase [7] = biological target: T4, E. coli DNA gyrase (Escherichia coli, UniProt P0AES4+P0AES6); assay: Gel-based gyrase-mediated DNA cleavage assay; assay type: biochemical; conditions: absence of ATP
T4 construct: made in house
T4 sequence (P0AES4 whole entry, one chain of several): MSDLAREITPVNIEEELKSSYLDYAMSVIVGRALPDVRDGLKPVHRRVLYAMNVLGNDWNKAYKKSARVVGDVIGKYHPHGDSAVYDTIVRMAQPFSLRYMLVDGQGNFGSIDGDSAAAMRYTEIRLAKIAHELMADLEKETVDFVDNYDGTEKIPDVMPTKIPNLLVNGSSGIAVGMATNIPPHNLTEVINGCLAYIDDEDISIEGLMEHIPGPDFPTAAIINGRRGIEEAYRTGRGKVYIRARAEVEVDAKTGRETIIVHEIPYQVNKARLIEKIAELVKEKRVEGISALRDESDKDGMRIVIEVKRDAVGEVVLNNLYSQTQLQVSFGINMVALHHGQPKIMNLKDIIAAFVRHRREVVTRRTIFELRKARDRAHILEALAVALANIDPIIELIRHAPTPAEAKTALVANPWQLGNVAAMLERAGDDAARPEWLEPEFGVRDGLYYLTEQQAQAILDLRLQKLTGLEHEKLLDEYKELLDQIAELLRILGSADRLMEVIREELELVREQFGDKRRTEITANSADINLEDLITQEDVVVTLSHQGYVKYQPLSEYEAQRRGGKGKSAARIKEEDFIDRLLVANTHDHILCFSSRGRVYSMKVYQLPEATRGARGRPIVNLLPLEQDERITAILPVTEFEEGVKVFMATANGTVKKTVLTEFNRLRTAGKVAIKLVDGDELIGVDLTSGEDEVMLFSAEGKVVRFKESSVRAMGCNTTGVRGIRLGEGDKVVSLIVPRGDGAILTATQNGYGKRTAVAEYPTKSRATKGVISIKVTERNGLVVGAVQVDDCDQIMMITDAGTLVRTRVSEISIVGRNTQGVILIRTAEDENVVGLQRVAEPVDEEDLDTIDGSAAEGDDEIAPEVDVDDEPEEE
Method: (§3) Assays to detect the stabilisation of cleavage complexes were identical to the protocol for topoisomerase activity detailed above, except as follows. Cleavage experiments with DNA gyrase were carried out in the absence of ATP and spermidine and 30 µL reactions were stopped with 3 µL 10% SDS and incubated with 3 µL 1 mg/mL proteinase K solution at 37°C for 1 h. For cleavage complex protection assays with suramin, the reaction buffer was modified to contain 4 mM CaCl2 rather than MgCl2.

E. coli DNA gyrase [8] = biological target: T4, E. coli DNA gyrase; assay: Agarose gel-based DNA supercoiling assay; assay type: biochemical; conditions: for IC50: gel supercoiling assay, 1 unit of gyrase (12 nM), read-out: Approx. IC50 against E. coli DNA gyrase; for Mechanism (DNA gyrase): summary of this study's mechanistic tests
Method: as §1

M. smegmatis mc^2155 = assay: Bacterial growth inhibition and colony counting; assay type: cell-based, Mycobacterium smegmatis
Method: as §2

S. shibatae topo VI [9] = biological target: T2, S. shibatae topo VI; assay: Protection from ADPNP-induced, S. shibatae topo VI-mediated DNA cleavage; assay type: biochemical, Sulfolobus shibatae
Method: as §3

E. coli strain NR698 = assay: Bacterial growth inhibition, membrane-permeable strain; assay type: cell-based, Escherichia coli; conditions: liquid and solid media
Method: as §2

M. mazei topo VI [10] = biological target: T1, M. mazei topo VI; assay: Native gel shift assay, topo VI binding to 147 bp DNA fragment
Method: (§4) In order to test the effects of hit compounds upon DNA binding by topoisomerases, samples of enzyme and drug were prepared under the following conditions in a final volume of 10 μL: 1 nM 147 bp linear fragment of DNA derived from pBR322, [82] 50 mM Tris•HCl (pH 7.5), 100 mM KCl, 5 mM MgCl2, 2 mM DTT, 10% w/v glycerol. Samples were incubated for 30 min at room temperature before being run on a 5% (29:1) Protogel acrylamide (National Diagnostics) gel in 90 mM Tris·Borate, 5 mM MgCl2 at 150 V for 45 min. The DNA was stained by soaking in 2 µg/mL ethidium bromide for 10 min and visualised under UV light.

E. coli DNA gyrase [11] = biological target: T4, E. coli DNA gyrase; assay: Native gel-shift assay, gyrase binding to 147 bp DNA fragment; conditions: 100 µM
Method: as §4

E. coli DNA gyrase [12] = biological target: T4, E. coli DNA gyrase; assay: Protection from Ca2+-induced, gyrase-mediated DNA cleavage; assay type: biochemical; conditions: 80 µM, 4 mM calcium chloride
Method: as §3

SMILES | Inhibition in gel-based relaxation assay (hit validation) (M. mazei topo VI [3]) | IC50 (M. mazei topo VI [3]) [µM] | Inhibition of S. shibatae topo VI (S. shibatae topo VI [4]) | Inhibition of growth / antimicrobial activity (E. coli MG1655) | Mechanism (Topo VI) (M. mazei topo VI [3]) | Inhibition in gel-based supercoiling assay (hit validation) (E. coli DNA gyrase [8]) | IC50 (E. coli DNA gyrase [8]) [µM] | Mechanism (DNA gyrase) (E. coli DNA gyrase [8]) | Inhibition of growth / antimicrobial activity (E. coli strain NR698) | also measured
CCCCCCc1ccc(O)cc1O [Hexylresorcinol] | validated as hits | 30 | did not display any inhibition |  |  |  |  |  |  | Average hypocotyl length ([1]; 40 µM): considerably reduced; Plants able to develop into a rosette ([1]; 40 µM, three-week-old plants): seven of the 32 plants; Average length of seedlings (hypocotyl) ([1]; 50 µM, 10 mm in the absence of drug, 5 days in the dark): approximately 1 mm; Seed germination ([1]; 80 µM): germination was reduced; Seed germination ([1]; 100 µM): completely preventing seed germination; also recorded: no seeds germinated; Number of seeds germinated ([1]; up to 50 µM): remained constant; Hypocotyl cell size, seedlings with dwarf morphology [2]: ~50 µm; Effect on M. mazei topo VI ATPase activity (M. mazei topo VI [5]): appeared to increase the rate of ATP hydrolysis; Effect on M. mazei topo VI ATPase activity (M. mazei topo VI [5]; listed as hexylresorcinol): appears to stimulate hydrolysis of ATP
O=C1c2c(O)ccc(O)c2C(=O)c2c(NCCNCCO)ccc(NCCNCCO)c21 [Mitoxantrone] | found to inhibit M. mazei topo VI | 2 |  | no inhibition of growth | Prevents cleavage | displayed inhibition | 12 | Cleavage-complex stabiliser | no inhibition of growth | Outcome in topo VI screen (hit threshold 25% inhibition) [6]: missed during the initial screen; Induction of gyrase-mediated DNA cleavage (E. coli DNA gyrase [7]; 10 µM): strongly induced DNA cleavage; Ability to stabilise the gyrase cleavage complex (E. coli DNA gyrase [7]; 100 µM): reduced; Colony count relative to absence of drug (M. smegmatis mc^2155; 65 μM, grown in liquid media then plated onto drug-free agar): 2%; Inhibition of growth (M. smegmatis mc^2155; liquid broth / liquid cultures): strongly inhibited the growth; also recorded: found to inhibit the growth; Prevention of ADPNP-induced DNA cleavage by S. shibatae topo VI (S. shibatae topo VI [9]): appeared to prevent ADPNP-induced cleavage
Cc1ccc(C(=O)Nc2ccc(S(=O)(=O)O)c3cc(S(=O)(=O)O)cc(S(=O)(=O)O)c23)cc1NC(=O)c1cccc(NC(=O)Nc2cccc(C(=O)Nc3cc(C(=O)Nc4ccc(S(=O)(=O)O)c5cc(S(=O)(=O)O)cc(S(=O)(=O)O)c45)ccc3C)c2)c1 [Suramin] | validated as hits | 30 | did not display any inhibition; also recorded: did not inhibit | no antimicrobial activity | Blocks DNA binding | displayed inhibition | 80 | Blocks DNA binding | no antimicrobial activity | Effect on binding of M. mazei topo VI to DNA (M. mazei topo VI [10]): appeared to prevent the binding of topo VI to DNA; also recorded: appeared to prevent G-segment binding; Induction of gyrase-mediated DNA cleavage (E. coli DNA gyrase [7]; concentration not given): did not display any ability to induce cleavage; Effect on gel shift of 147 bp DNA by DNA gyrase (E. coli DNA gyrase [11]): abolishes this shift; Protection of DNA from Ca2+-induced cleavage by gyrase (E. coli DNA gyrase [12]): completely protect DNA from cleavage; Antimicrobial activity (M. smegmatis mc^2155): no antimicrobial activity

Reference: article PMC3582512, “Application of a Novel Microtitre Plate-Based Assay for the Discovery of New Inhibitors of DNA Gyrase and DNA Topoisomerase VI” (PLoS ONE, 2013)
